In patent US20250011738A1, “HEAT TOLERANT ALKALINE PHOSPHATASE” (BiomEdit, LLC, priority 2021, published 2025):

Target: T1, Paenibacillus lentus alkaline phosphatase AP1 (designated "Native"), serine (S) replacement for an aspartic acid (D), SEQ ID NO: 4 (Paenibacillus lentus, UniProt A0A3Q8S6G4, D102S)
T1 sequence (A0A3Q8S6G4 34-572 D102S): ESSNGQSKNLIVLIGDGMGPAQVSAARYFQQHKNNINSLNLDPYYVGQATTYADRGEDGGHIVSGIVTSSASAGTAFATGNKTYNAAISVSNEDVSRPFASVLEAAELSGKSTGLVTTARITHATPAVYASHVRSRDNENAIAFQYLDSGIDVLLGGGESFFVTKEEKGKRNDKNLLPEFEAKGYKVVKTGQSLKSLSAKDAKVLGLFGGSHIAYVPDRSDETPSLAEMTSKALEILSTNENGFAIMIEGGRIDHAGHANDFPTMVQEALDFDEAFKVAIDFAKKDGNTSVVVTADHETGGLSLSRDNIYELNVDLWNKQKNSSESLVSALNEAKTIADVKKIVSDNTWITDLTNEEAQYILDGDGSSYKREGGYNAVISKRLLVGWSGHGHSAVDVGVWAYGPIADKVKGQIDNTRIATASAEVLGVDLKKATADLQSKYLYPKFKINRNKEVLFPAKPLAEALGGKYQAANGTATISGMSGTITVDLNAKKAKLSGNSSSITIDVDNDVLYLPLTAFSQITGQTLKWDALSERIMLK
Assay: Phosphatase kinetics with p-NPP, AP1 ("Native")
Format: biochemical
Protocol: FIG. 7 presents effect of pH on (A)Vmax (IU/mg) and (B) KM (μM) activity of AP1 (designated “Native”) and APHT (designated “HT”). Assays were performed at 40° C. with p-NPP as substrate in the concentration range 0-5 mM. The enzyme concentration was 2.5 μg/mL for the pH 8 and 0.4 mg/mL for pH 9-13).
FIG. 8 presents effect of pH on (A)Vmax (IU/mg) and (B) KM (μM) activity of AP1 (designated “Native”) and APHT (designated “HT”). Assays were performed at 50° C. with p-NPP as substrate in the concentration range 0-5 mM. The enzyme concentration was 2.5 μg/mL for the pH 8 and 0.4 mg/mL for pH 9-13).
Enzymes, including lysozyme and alkaline phosphatase, are recognized as disruptors of bacterial debris and inflammation. These enzymes reduce inflammation, including by lysing the peptidoglycans and LPS of bacteria, thus deactivating them and thereby bypassing the inflammatory response. An alkaline phosphatase was initially identified and modified from Paenibacillus lentus bacteria and expressed for application and use as a farm animal feed additive. This modified alkaline phosphatase is characterized by having a serine (S) replacement for an aspartic acid (D) in the native bacterial alkaline phosphatase protein sequence and is designated herein as AP1. […] The AP1 alkaline phosphate is described including in U.S. Pat. No. 9,326,535 issued May 3, 2016. The sequence of AP1 is as follows (the serine is in bold and underlined) (SEQ ID NO:4):
• 1 M DEA Buffer pH 10. Dissolve 10.5 g of diethanolamine in to 100 ml of water. The pH adjust with 1 M hydrochloric acid or 1 M NaOH. Filter sterilize and store at 4 C. • 0.5 M Tris Base Buffer pH 10 and 8. Dissolve 6.06 g of Tris in to 100 ml of water. The pH adjust with 1 M hydrochloric acid or 1 M NaOH. Filter sterilize and store at 4 C. • 0.1 M Borate Buffer pH 11 and 12. Dissolve 0.62 g Boric acid, 0.44 g NaCl and Sodium tetraborate 0.95 g in 100 ml H2O. The pH adjust with 1 M hydrochloric acid or 1 M NaOH. Filter sterilize and store at 4 C. • 1 M KCl/NaOH Buffer pH 13. Dissolve 7.4 g KCl in 100 ml water. The pH adjust with 1 M NaOH. Filter sterilize and store at 4 C. • 1 M MgCl2, 23.8 g MgCl2 anhydrous in […] water. Filter sterilize and store at 4 C 3. Activity Assay: p-NPP Substrate
Reactions were carried out at 40° C. using 50 mM Tris buffer pH 7 with 50 mM MgCl2 and at 50° C. using 50 mM DEA buffer pH 10 with 50 mM MgCl2. Enzyme was thawed, aliquoted in 500 μL vials and freeze at −80° C. For 100 μL volume of reaction, components were mixed in 96-well microplate (Fisher 12565501) following the order in TABLE 1. Every reaction condition was done by triplicated at least.
After the adding enzyme, the absorption of product was followed at 405 nm over 5 min in a M5 plate reader with intervals of 20 s. Initial rate was determined for each curve and product formed calculated using the extinction coefficient of 18.5 mM^−1·cm^−1 and a calculated pathlength of 0.5 cm. Initial rates where fitted to Michalis Menten model built in the Kaleidagraph software.
pH effect on enzyme activity was tested at 40 and 50° C. in the corresponding buffer with 50 mM MgCl2 using p-NPP as substrate in the concentration range 0-5.0 mM. The reaction started with the addition of enzyme (2.5 μg/mL for pH 8 and 0.4 μg/mL for pH 9-13) and the absorption at 405 nm was followed for 5 min. Every reaction condition was done by triplicated at least. The initial rates where fitted to Michalis Menten model built in the software Kaleidagraph.

SMILES: O=[N+]([O-])c1ccc(OP(=O)(O)O)cc1 [p-NPP, p-nitrophenylphosphate]
- Km (40° C., Borate pH 11): 3340 µM
- Km (40° C., DEA pH 10): 776 µM
- Km (40° C., Tris pH 8): 65 µM
- Km (40° C., Tris pH 9): 315 µM
- Km (50° C., Borate pH 11): 573 µM
- Km (50° C., Borate pH 12): 293 µM
- Km (50° C., KCl/NaOH (pH printed 204; Table 2: 13.0)): 64 µM
- Km (50° C., Tris pH 8): 383 µM
- Km (50° C., Tris pH 9): 1440 µM
